Data published in ChEMBL document CHEMBL1139542, “Synthesis, biological evaluation, and three-dimensional quantitative structure-activity relationship study of small-molecule positive modulators of adrenomedullin” (J Med Chem, 2005).

Test system: Adrenomedullin (Homo sapiens)
Assay: Affinity against human adrenomedullin

Structure (SMILES) | Affinity
Nn1c(CCCCCCCCc2nnc(COc3c(O)ccc4ccccc34)n2N)nnc1COc1c(O)ccc2ccccc12 | 46%
O=C(CCCCCCCCC(=O)NNC(=O)COc1ccccc1)NNC(=O)COc1ccccc1 | 25%
c1ccc(OCc2nnc(CCCCCc3nnc(COc4ccccc4)o3)o2)cc1 | 4%
c1ccc(OCc2nnc(CCCCCCc3nnc(COc4ccccc4)o3)o2)cc1 | 10%
c1ccc(Nn2c(CCCCCCCCc3nnc(COc4ccccc4)n3Nc3ccccc3)nnc2COc2ccccc2)cc1 | 81%
Nn1c(CCCCCCCCc2nnc(COc3ccc4ccccc4c3O)n2N)nnc1COc1ccc2ccccc2c1O | 42%
c1ccc(OCc2nnc(CCCCc3nnc(COc4ccccc4)o3)o2)cc1 | 18%
Clc1ccc(OCc2nnc(CCCCCCCCc3nnc(COc4ccc(Cl)cc4)n3Nc3ccccc3)n2Nc2ccccc2)cc1 | 51%
O=C(CCCCCC(=O)NNC(=O)COc1ccccc1)NNC(=O)COc1ccccc1 | 16%
Oc1ccc2ccccc2c1OCc1nnc(CCCCCCCCc2nnc(COc3c(O)ccc4ccccc34)n2Nc2ccccc2)n1Nc1ccccc1 | 24%
c1ccc(Cn2c(CCCCCCCCc3nnc(COc4ccccc4)n3Cc3ccccc3)nnc2COc2ccccc2)cc1 | 4%
c1ccc(Cn2c(CCCCCCCc3nnc(COc4ccccc4)n3Cc3ccccc3)nnc2COc2ccccc2)cc1 | 20%
O=C(CCCCCCCC(=O)NNC(=O)COc1ccccc1)NNC(=O)COc1ccccc1 | 7%
Nn1c(CCCCCCCCc2nnc(COc3ccc(Cl)cc3)n2N)nnc1COc1ccc(Cl)cc1 | 19%
Nn1c(CCCCCCCCc2nnc(COc3ccc(Cl)cc3Cl)n2N)nnc1COc1ccc(Cl)cc1Cl | 48%
c1ccc(Cn2c(CCCCCc3nnc(COc4ccccc4)n3Cc3ccccc3)nnc2COc2ccccc2)cc1 | 14%
O=C(CCCCCCC(=O)NNC(=O)COc1ccccc1)NNC(=O)COc1ccccc1 | 20%

Continued, values first:

Affinity | Structure (SMILES)
83% | Oc1c(OCc2nnc(CCCCCCCCc3nnc(COc4ccc5ccccc5c4O)n3Nc3ccccc3)n2Nc2ccccc2)ccc2ccccc12
6% | c1ccc(OCc2nnc(CCCCCCCc3nnc(COc4ccccc4)o3)o2)cc1
1% | O=C(CCCCC(=O)NNC(=O)COc1ccccc1)NNC(=O)COc1ccccc1
68% | Clc1ccc(OCc2nnc(CCCCCCCCc3nnc(COc4ccc(Cl)cc4Cl)n3Nc3ccccc3)n2Nc2ccccc2)c(Cl)c1
5% | c1ccc(OCc2nnc(CCCCCCCCc3nnc(COc4ccccc4)o3)o2)cc1
19% | c1ccc(Cn2c(CCCCc3nnc(COc4ccccc4)n3Cc3ccccc3)nnc2COc2ccccc2)cc1
3% | c1ccc(Cn2c(CCCCCCc3nnc(COc4ccccc4)n3Cc3ccccc3)nnc2COc2ccccc2)cc1
